Key:
[1] = system: calpain; experiment: Calpain activity in cell-free supernatants of activated BMMCs; format: cell-based, murine
Experimental: Calpain activity was detected from cell-free supernatants using the Calpain-Glo Protease Assay (Promega). Supernatants were incubated with substrate for 10 min prior to luminescent detection. In some experiments, glyburide or vehicle (0.1% DMSO) were added to cells 10 min prior to Ag. ELISA kits from eBioscience (IL-13), BioLegend, (TNF and IL-10) or RayBiotech (NKA) and used in accord with the manufacturer's recommendations.

[2] = system: IL-10; experiment: IL-10 degradation assays on BMMC supernatants; format: cell-based, murine
Experimental: To detect early IL-10 release, 4×10^6 cells were incubated in serum free RPMI for a minimum of three hours prior to IgE loading and activation with DNP-HSA (100 ng/mL). Supernatants were collected and IL-10 was detected in accord with manufacturer's recommendations using 1.0% BSA to block and a top standard of 250 pg/mL. The lower limit of detection was 7.8 pg/mL. To evaluate the role of relationship between calpain and IL-10, cell-free supernatants were collected 10 min after activation and incubated with Ac-calpastatin (Ac-Cal; 20 μg/mL, Cayman) or vehicle control. […] To directly test IL-10 proteolysis, MCs were activated for 45 min, cell free supernatants were collected and pulsed with recombinant IL-10 (Biolegend, 250 pg/mL).

[3] = system: BMMCs; experiment: Avidin / LAMP-1 surface staining of activated BMMCs; format: cell-based, murine; parameters: effect on LAMP-1^+ and avidin^+ BMMCs: dose or concentration left out as unconfirmed
Experimental: MCs were collected and washed with PBS containing 0.5% BSA and 0.1% sodium azide. Non-specific binding was inhibited using FcBlock (PBS with 2.0% goat serum and 0.25 mg/mL anti-CD16/32 (clone 2.4G2, BD Biosciences). Surface staining was done with anti-CD117 eFluor450 (clone 2B8, ThermoFisher), anti-FcεRI FITC (clone MAR-1, ThermoFisher) and anti-ABCA1 Alexa Fluor 647 (clone 5A1-1422, BioRad). Cells were washed with Wash Buffer (PBS with 0.5% BSA and 0.1% sodium azide). To detect differences in granulated proteins at the cell surface, IgE-loaded MCs were activated with DNP-HSA with or without NKA in Tyrode's Buffer for 30 min, washed with Wash Buffer then stained with Avidin Alexa Fluor488 (Invitrogen, Av488, 0.8 μg/5×10^5 cells) and anti-LAMP-1 PE (clone eBio 1D48, ThermoFisher). Data were acquired on either a LSRII or a Fortessa (BD BioSciences). Analysis was performed with FlowJo v10.4 (BD Biosciences).

[4] = system: passive cutaneous anaphylaxis (PCA); experiment: Passive cutaneous anaphylaxis (PCA) in mice; format: in vivo, mouse
Experimental: Mouse ears were measured with a micrometer then sensitized with IgE in filter-sterilized PBS (Sigma, clone SPE-7, 20 ng/50 μl/ear) or vehicle control. Twenty-four hours later mice were treated with NKA (10 μg/ear, intradermal) or vehicle (PBS) 3 h prior to Ag (DNP-HSA 100 μg, in 200 μl, intravenous in saline) administration. Data are presented as change in ear thickness between baseline and the indicated time. […] Edema was evaluated histologically and as a function of Evans blue dye extravasation. For histological evaluation, mice were euthanized 2 h after PCA induction. Paraformaldehyde (4.0%) fixed ears were processed for hematoxylin and eosin staining. Pathology was blindly evaluated on an Axiostar plus microscope equipped with epifluorescence and a digital camera (AxioCam; Zeiss). For dye extravasation, Ag was delivered in 1.0% Evans blue dye. Ninety min later mice were euthanized, and ears were excised. Dye was extracted in DriSolv (EMD Millipore) and quantified as absorbance at OD 650 nm. Data are shown as OD650/mg of tissue. Cytokine expression in the skin was investigated 24 h after PCA induction. Mice were euthanized, ears excised, and tissue homogenized in T-PER (ThermoFisher) with Protease Inhibitor Cocktail (Sigma). Protein concentrations were quantified using the BCA Protein Assay (Pierce). The protein profile of skin homogenates was characterized with C-Series Mouse Cytokine Antibody Array C1 (RayBiotech). Densitometry values subtracting the median background from individual spot areas were calculated with ImageStudioLite v5.2.5. The densitometry value from each cytokine spot was divided by the mean densitometry of positive control spots to give relative protein expression. Data were from each experiment were normalized as (Relative Expression [Treated]/Relative expression [Vehicle]). In some experiments, ELISAs were performed on skin homogenates. Neutrophil influx was evaluated as a function of myeloperoxidase (MPO) activity. To detect MPO activity, tissue was homogenized with a Next Advance Bullet Homogenizer in 50 mM KPG4 with 50 mM […]. Homogenate was incubated with ODP (Sigma) with 0.005% H2O2 for 30 minutes. Enzymatic reactions were stopped with 1N HCl and absorbance was read at 450 nm.

[5] = increasing concentrations of glyburide 10 min prior to activation, supernatants 30 min after activation
[6] = 24 h after PCA induction, NKA pretreatment
[7] = 24 h after PCA induction, NKA pretreatment, listed as Neurokinin A
[8] = NKA 10 μg/ear intradermal 3 h prior to Ag

Compound: COc1ccc(Cl)cc1C(=O)NCCc1ccc(S(=O)(=O)NC(=O)NC2CCCCC2)cc1 [glyburide, reference compound]
- calpain activity [1, 5]: reduced
- IL-10 levels [2, 5]: increasing
- effect on LAMP-1^+ and avidin^+ BMMCs ([3]; IgE-activated 30 minutes): less robust effect
- ear thickness at 24 h ([4]; glyburide 2.5 mg/kg i.p. 3 h prior to PCA induction): significantly reduced

Compound: Neurokinin A [NKA]
- extracellular calpain activity ([1]; IgE+Ag with or without NKA for 60 min): significantly downregulated
- early IL-10 in supernatants ([2]; 60 min after activation with NKA): significantly more IL-10
- degradation of early IL-10 / pulsed rIL-10 by released proteases ([2]; cell-free supernatants pulsed with rIL-10 for 30 min): disrupted
- avidin^+ granules and LAMP-1 on the cell surface ([3]; 30 min after activation, with or without NKA): equivalent amounts
- IFNγ levels in skin (protein array) [4, 6]: not statistically significant, IFNγ levels increased
- IL-3 in IgE-treated skin (protein array) [4, 6]: significantly reduced
- IL-6 in IgE-treated skin (protein array) [4, 6]: significantly reduced
- IL-13 in IgE-treated skin (protein array) [4, 6]: down-regulated
- MCP1 in IgE-treated skin (protein array) [4, 6]: significantly reduced
- RANTES in IgE-treated skin (protein array) [4, 6]: significantly reduced
- TNF in IgE-treated skin (protein array) [4, 6]: down-regulated
- IL-13 in IgE-treated skin (protein array) [4, 7]: significantly reduced
- TNF in IgE-treated skin (protein array) [4, 7]: significantly reduced
- Evans blue dye extravasation ([4]; Mcpt5Cre^+×IL10/l mice): no effect
- Evans blue dye extravasation ([4]; Mcpt5Cre^+×IL10^WT mice): inhibited
- IL-13 in the skin by ELISA ([4]; Mcpt5 Cre^+×IL10^WT mice, 24 h): significantly downregulated
- TNF in the skin by ELISA ([4]; Mcpt5 Cre^+×IL10^WT mice, 24 h): significantly downregulated
- immune-regulatory capacity (ear measurements) at 2 h and 24 h after PCA induction ([4]; Mcpt5Cre^+×IL10^fl/fl mice): lost
- ear thickness, early (1-2 hours) phase of PCA [4, 8]: reduced ear thickness
- ear thickness, late phase of PCA (24 h) [4, 8]: reduced ear thickness
- Evans blue dye extravasation ([4]; NKA 10 μg/ear intradermal 3 h prior to Ag, 90 min after Ag): reduced Evans blue dye extravasation
- edema in histological sections, early phase of PCA ([4]; NKA 10 μg/ear intradermal 3 h prior to Ag, 2 h after PCA induction): a reduction in edema
- IL-10 protein in total skin homogenates ([4]; NKA pretreated mice): did not increase
- myeloperoxidase activity in skin homogenates, 24 h ([4]; NKA pretreatment): reduced myeloperoxidase activity
- neutrophil influx in histological sections, late phase (24 h) ([4]; NKA pretreatment): reduced neutrophil influx
- IL-13 in the skin ([4]; absence of MC-derived IL-10): increased
- TNF in the skin ([4]; absence of MC-derived IL-10): increased
- PCA, including degranulation-associated edema ([4]; overall statement): fully inhibited

— patent US20240238228A1, “COMPOSITIONS AND METHODS FOR TREATING ALLERGIES AND INFLAMMATORY CONDITIONS” (UNIVERSITY OF PITTSBURGH-OF THE COMMONWEALTH SYSTEM OF …, priority 2021, published 2024)
